Experimental findings from ChEMBL document CHEMBL3352360, “Two new spirooxindole alkaloids from rhizosphere strain Streptomyces sp. xzqh-9” (Bioorg Med Chem Lett, 2014) are described below.

Data set [1] in a line: Retention factor of the compound on TLC over silica gel. The class given is physicochemical.
Data set [2] can be described thus: Antiproliferative activity against human BGC823 cells assessed as inhibition of cell proliferation at 10 to 100 uM. The class given is functional, BGC-823.
The subject of the next data set is HepG2. In words: Antiproliferative activity against human HepG2 cells assessed as inhibition of cell proliferation at 10 to 100 uM. It is filed as functional.
Another data set has as its system BaF3. In words: Inhibition of Bcr-Abl (unknown origin) expressed in BaF3 cells at 30 uM. It is filed as cell-based. Particulars: Homo sapiens.
The test system of the next data set is MCF7. Nature of the data set: Antiproliferative activity against human MCF7 cells assessed as inhibition of cell proliferation at 10 to 100 uM. It is filed as functional.
The target in data set [3] is L-lactate dehydrogenase (Homo sapiens) (UniProt V9HWB9). Nature of the data set: Inhibition of LDH (unknown origin) at 10 uM by biochemical assay.
The next data set relates to A549. Nature of the data set: Antiproliferative activity against human A549 cells assessed as inhibition of cell proliferation at 10 to 100 uM. The class given is functional.

Active and inactive are the calls of the source. No cut-off for these calls is given here.

In data set [1], `CC1=C(O)C(=O)C2=C(CCC2)[C@]12C(=O)N(C)c1ccccc12` came in with a Rf of 0.67. The “inhibition (INH)” value (in data set [2]; in the data set with HepG2; in the data set with MCF7; in the data set on A549) was less than 10% throughout. Further, the inhibition in the data set on BaF3 came out at 15%. Further, the inhibition result in data set [3] is “inactive”.

Regarding `C[C@@H]1[C@@H](O)C(=O)C2=C(CCC2)[C@]12C(=O)N(C)c1ccccc12`, the Rf in data set [1] was 0.8. The “inhibition (INH)” value (in data set [2]; in the data set on HepG2; in the data set with MCF7; in the data set with A549) was less than 10% throughout. Further, the inhibition result (in the data set on BaF3; in data set [3]) was “inactive” each time.

Broadly, the inhibition is how much of the control response was suppressed.
